Laboratory results reported in the NIST ThermoML archive (doi:10.1016/j.jct.2016.12.019).

Test: xn = mol fraction of the nth substance listed
Details: 100 kPa, Liquid; for viscosity: Capillary tube (Ostwald / Ubbelohde) method; for speed of sound: Frequency=2 MHz, Linear variable-path acoustic interferometer; for mass density: Vibrating tube method

CCN(CC)c1ccccc1 [N,N-diethylaniline] + CCCCCCCCCO
Details | mass density [kg/m3] | speed of sound [m/s] | viscosity [mPa·s]
303.15 K, x1 = 0.1136 | 829.82 | 1359 | 6.563
303.15 K, x1 = 0.2326 | 840.12 | 1362.8 | 5.409
303.15 K, x1 = 0.3469 | 850.43 | 1367.6 | 4.509
303.15 K, x1 = 0.4541 | 860.76 | 1373.5 | 3.804
303.15 K, x1 = 0.5549 | 871.13 | 1380.2 | 3.248
303.15 K, x1 = 0.6498 | 881.45 | 1387.8 | 2.805
303.15 K, x1 = 0.7293 | 890.62 | 1395.3 | 2.488
303.15 K, x1 = 0.8244 | 902.24 | 1405.9 | 2.166
303.15 K, x1 = 0.9041 | 912.58 | 1416.7 | 1.938
303.15 K, x1 = 1 | 925.8 | 1432 | 1.711
308.15 K, x1 = 0.1136 | 826.24 | 1336.3 | 5.491
308.15 K, x1 = 0.2326 | 836.48 | 1340.6 | 4.557
308.15 K, x1 = 0.3469 | 846.76 | 1346.2 | 3.828
308.15 K, x1 = 0.4541 | 857.04 | 1352.7 | 3.252
308.15 K, x1 = 0.5549 | 867.33 | 1360.1 | 2.794
308.15 K, x1 = 0.6498 | 877.63 | 1368.3 | 2.427
308.15 K, x1 = 0.7293 | 886.75 | 1376.3 | 2.164
308.15 K, x1 = 0.8244 | 898.32 | 1387.7 | 1.898
308.15 K, x1 = 0.9041 | 908.61 | 1399.2 | 1.714
308.15 K, x1 = 1 | 921.8 | 1416 | 1.537
313.15 K, x1 = 0.1136 | 822.7 | 1315.3 | 4.791
313.15 K, x1 = 0.2326 | 832.9 | 1320 | 3.988
313.15 K, x1 = 0.3469 | 843.13 | 1325.9 | 3.362
313.15 K, x1 = 0.4541 | 853.37 | 1332.7 | 2.867
313.15 K, x1 = 0.5549 | 863.63 | 1340.4 | 2.471
313.15 K, x1 = 0.6498 | 873.88 | 1348.9 | 2.154
313.15 K, x1 = 0.7293 | 882.96 | 1357.1 | 1.926
313.15 K, x1 = 0.8244 | 894.48 | 1368.8 | 1.697
313.15 K, x1 = 0.9041 | 904.74 | 1380.6 | 1.541
313.15 K, x1 = 1 | 917.9 | 1398 | 1.4
318.15 K, x1 = 0.1136 | 817.68 | 1295.7 | 3.979
318.15 K, x1 = 0.2326 | 827.96 | 1300.3 | 3.341
318.15 K, x1 = 0.3469 | 838.28 | 1306.2 | 2.843
318.15 K, x1 = 0.4541 | 848.61 | 1312.9 | 2.447
318.15 K, x1 = 0.5549 | 858.95 | 1320.6 | 2.128
318.15 K, x1 = 0.6498 | 869.3 | 1328.9 | 1.869
318.15 K, x1 = 0.7293 | 878.48 | 1337.1 | 1.683
318.15 K, x1 = 0.8244 | 890.11 | 1348.6 | 1.498
318.15 K, x1 = 0.9041 | 900.48 | 1360.3 | 1.377
318.15 K, x1 = 1 | 913.8 | 1378 | 1.276

CCN(CC)c1ccccc1 [N,N-diethylaniline] + CCCCCCCCCCO
Details | mass density [kg/m3] | speed of sound [m/s] | viscosity [mPa·s]
303.15 K, x1 = 0.1141 | 831.36 | 1364.5 | 7.932
303.15 K, x1 = 0.2218 | 839.38 | 1366.8 | 6.521
303.15 K, x1 = 0.3717 | 852.13 | 1372.3 | 4.96
303.15 K, x1 = 0.4886 | 863.05 | 1378.1 | 4.007
303.15 K, x1 = 0.5815 | 872.51 | 1383.9 | 3.386
303.15 K, x1 = 0.6645 | 881.58 | 1390.1 | 2.918
303.15 K, x1 = 0.7545 | 892.16 | 1398.3 | 2.494
303.15 K, x1 = 0.8324 | 902.01 | 1406.8 | 2.185
303.15 K, x1 = 0.9121 | 912.85 | 1417.5 | 1.929
303.15 K, x1 = 1 | 925.8 | 1432 | 1.711
308.15 K, x1 = 0.1141 | 827.63 | 1345.2 | 6.651
308.15 K, x1 = 0.2218 | 835.9 | 1347.8 | 5.497
308.15 K, x1 = 0.3717 | 848.55 | 1353.7 | 4.217
308.15 K, x1 = 0.4886 | 859.44 | 1359.9 | 3.43
308.15 K, x1 = 0.5815 | 868.83 | 1366 | 2.914
308.15 K, x1 = 0.6645 | 877.84 | 1372.5 | 2.523
308.15 K, x1 = 0.7545 | 888.35 | 1380.9 | 2.167
308.15 K, x1 = 0.8324 | 898.14 | 1389.7 | 1.913
308.15 K, x1 = 0.9121 | 908.91 | 1400.6 | 1.705
308.15 K, x1 = 1 | 921.8 | 1416 | 1.537
313.15 K, x1 = 0.1141 | 824 | 1329.2 | 5.619
313.15 K, x1 = 0.2218 | 832.24 | 1331.8 | 4.671
313.15 K, x1 = 0.3717 | 844.85 | 1337.5 | 3.616
313.15 K, x1 = 0.4886 | 855.71 | 1343.5 | 2.963
313.15 K, x1 = 0.5815 | 865.07 | 1349.5 | 2.529
313.15 K, x1 = 0.6645 | 874.05 | 1355.7 | 2.199
313.15 K, x1 = 0.7545 | 884.52 | 1363.8 | 1.898
313.15 K, x1 = 0.8324 | 894.28 | 1372.3 | 1.687
313.15 K, x1 = 0.9121 | 905.03 | 1382.9 | 1.52
313.15 K, x1 = 1 | 917.9 | 1398 | 1.4
318.15 K, x1 = 0.1141 | 819.43 | 1320.2 | 4.835
318.15 K, x1 = 0.2218 | 827.69 | 1321.6 | 4.032
318.15 K, x1 = 0.3717 | 840.35 | 1326.2 | 3.137
318.15 K, x1 = 0.4886 | 851.26 | 1331 | 2.582
318.15 K, x1 = 0.5815 | 860.67 | 1336 | 2.21
318.15 K, x1 = 0.6645 | 869.69 | 1341.2 | 1.928
318.15 K, x1 = 0.7545 | 880.21 | 1348 | 1.672
318.15 K, x1 = 0.8324 | 890.03 | 1355.4 | 1.493
318.15 K, x1 = 0.9121 | 900.83 | 1364.7 | 1.359
318.15 K, x1 = 1 | 913.8 | 1378 | 1.276

CCN(CC)c1ccccc1 [N,N-diethylaniline] + CCCCCCCCO
Details | mass density [kg/m3] | speed of sound [m/s] | viscosity [mPa·s]
303.15 K, x1 = 0.1157 | 828.58 | 1338.2 | 5.469
303.15 K, x1 = 0.2012 | 836.5 | 1342.6 | 4.863
303.15 K, x1 = 0.3115 | 847.11 | 1349.2 | 4.178
303.15 K, x1 = 0.4221 | 858.24 | 1357.3 | 3.59
303.15 K, x1 = 0.5111 | 867.57 | 1364.9 | 3.18
303.15 K, x1 = 0.6217 | 879.68 | 1375.9 | 2.743
303.15 K, x1 = 0.7135 | 890.17 | 1386.8 | 2.433
303.15 K, x1 = 0.8063 | 901.22 | 1399.4 | 2.162
303.15 K, x1 = 0.9045 | 913.42 | 1414.7 | 1.915
303.15 K, x1 = 1 | 925.8 | 1432 | 1.711
308.15 K, x1 = 0.1157 | 824.98 | 1317.3 | 4.653
308.15 K, x1 = 0.2012 | 832.86 | 1321.9 | 4.155
308.15 K, x1 = 0.3115 | 843.43 | 1329.1 | 3.59
308.15 K, x1 = 0.4221 | 854.51 | 1337.7 | 3.132
308.15 K, x1 = 0.5111 | 863.81 | 1345.7 | 2.762
308.15 K, x1 = 0.6217 | 875.86 | 1357.3 | 2.397
308.15 K, x1 = 0.7135 | 886.3 | 1368.4 | 2.137
308.15 K, x1 = 0.8063 | 897.3 | 1381.4 | 1.913
308.15 K, x1 = 0.9045 | 909.45 | 1397.3 | 1.704
308.15 K, x1 = 1 | 921.8 | 1416 | 1.537
313.15 K, x1 = 0.1157 | 820.38 | 1300 | 3.991
313.15 K, x1 = 0.2012 | 828.3 | 1304.5 | 3.58
313.15 K, x1 = 0.3115 | 838.94 | 1311.6 | 3.112
313.15 K, x1 = 0.4221 | 850.09 | 1320.2 | 2.707
313.15 K, x1 = 0.5111 | 859.45 | 1328.2 | 2.422
313.15 K, x1 = 0.6217 | 871.58 | 1339.5 | 2.118
313.15 K, x1 = 0.7135 | 882.1 | 1350.5 | 1.899
313.15 K, x1 = 0.8063 | 893.18 | 1363.3 | 1.708
313.15 K, x1 = 0.9045 | 905.42 | 1379.3 | 1.536
313.15 K, x1 = 1 | 917.9 | 1398 | 1.4
318.15 K, x1 = 0.1157 | 815.85 | 1286.3 | 3.504
318.15 K, x1 = 0.2012 | 823.79 | 1290.4 | 3.151
318.15 K, x1 = 0.3115 | 834.47 | 1297 | 2.748
318.15 K, x1 = 0.4221 | 845.67 | 1304.9 | 2.398
318.15 K, x1 = 0.5111 | 855.06 | 1312.4 | 2.154
318.15 K, x1 = 0.6217 | 867.24 | 1323 | 1.889
318.15 K, x1 = 0.7135 | 877.8 | 1333.2 | 1.701
318.15 K, x1 = 0.8063 | 888.93 | 1345.1 | 1.535
318.15 K, x1 = 0.9045 | 901.24 | 1360.1 | 1.388
318.15 K, x1 = 1 | 913.8 | 1378 | 1.276
